From patent publication US10081561B2, “Reduction of hydrogen sulfide and/or malodor gassing from water via the addition of peroxyacetic acid/hydrogen peroxide product” (priority 2013, dated 2018)

Test system: aerobe population and SRP population
Experiment: PAA demand study, assumed microbial kill efficiency (FIG. 2)
Assay type: cell-based
Settings: assumed for FIG. 2
Description: Referring now to FIG. 2 there is shown a graph of one such example. If we assume that in a given system the aerobe population is 1,000,000 per mL and the SRP population is 100,000 per mL and we perform a PAA demand study to understand the microbial kill efficiency we can then determine how much PAA to add to minimize the SRP population without killing so many aerobes that it is detrimental to the waste water plant. This graph assumes that reduction after treatment may be something like: 50% reduction with a 20 ppm PAA treatment, 90% reduction with a 40 ppm treatment, and 99% reduction with a 60 ppm treatment. The goal of treatment would be to suppress the SPR population as much as possible while still allowing a sufficient number of aerobes to survive and move into the waste process.

## CC(=O)OO [PAA, peroxyacetic acid]
20 ppm PAA treatment
  reduction after treatment: ~50%
40 ppm treatment
  reduction after treatment: ~90%
60 ppm treatment
  reduction after treatment: ~99%
